From patent US9701556B1, “Compositions, methods, and systems for reducing contamination” (priority 2004, dated 2017)
Several values for one entry are separate records, joined by “and”; a condition that tells them apart may be missing. Equal values may be shown once.

What was measured:
[1] = Comparative treatment of 2,4-D in water, GC analysis; settings: after four hours
Method: A solution containing 1.5 L of distilled water, approximately 0.2 g of sodium bicarbonate, and a small amount of sodium salt of 2,4-D were prepared with magnetic stirring at room temperature in a 2.5 L flask. The dissolved sodium bicarbonate increased the alkalinity of the water somewhat, causing the water to mimic a natural water source. Two hundred fifty milliliters of this solution was distributed into three 500 mL Erlenmeyer flasks.
The flasks were then covered with parafilm and swirled to facilitate mixing of the solution.

[2] = Treatment of contaminated groundwater, BTEX SW 846 8260; settings: 250 ml groundwater, 1 ml 35% hydrogen peroxide (with or without 1 ml Fe-GLC); untreated 56 ppb; ND = non detectible
[3] = as above; settings: 250 ml groundwater, 1 ml 35% hydrogen peroxide (with or without 1 ml Fe-GLC); untreated 34 ppb; ND = non detectible
[4] = as above; settings: 250 ml groundwater, 1 ml 35% hydrogen peroxide (with or without 1 ml Fe-GLC); untreated 171 ppb; ND = non detectible
[5] = as above; settings: 250 ml groundwater, 1 ml 35% hydrogen peroxide (with or without 1 ml Fe-GLC); untreated 159 ppb; ND = non detectible
[6] = as above; settings: 250 ml groundwater, 1 ml 35% hydrogen peroxide (with or without 1 ml Fe-GLC); untreated 27 ppb
Fecal Coliform = test: Disinfection of wastewater, fecal coliform count; assay type: cell-based; settings: 50 microliters 35% H2O2 (with or without 50 microliters Fe-GLC), after twenty minutes, control 2200
Excerpt: The samples were divided equally into three clean 500 milliliter sample containers from the single sample taken. The first sample served as a control and was set aside. […] Each sample was capped and shaken briefly to mix the contents. After twenty minutes, sub-samples were taken from each vessel and pored into fecal coliform sample containers for analysis at the Hampton Roads Sanitary District lab.

heterotrophic bacteria = test: Disinfection of wastewater with chelated iron compounds, total heterotrophic bacteria counts; assay type: cell-based; settings: compared with hydrogen peroxide alone
Method: A 10 gallon sample of wastewater from the Massaponax Wastewater Plant was collected and allowed to sit undisturbed for thirty minutes. The clarified supernatant was then pored off of the top of the settled solids within the sample. The supernatant was then mixed and four samples were collected to determine untreated heterotrophic bacteria counts. […] were dissolved in distilled water at 0.4334M. Ferric chloride was added in amounts to achieve saturation of chelant sites on the respective chelants. […] Twenty individual liter samples of supernatant were then decanted from the well-mixed wastewater sample for testing. Four chelated iron products with peroxide were tested at two test concentrations and compared to samples receiving peroxide only and iron chelate only. […] Individual samples were dosed with the respective additives, mixed with a magnetic stir bar and allowed to react for 30 minutes. Samples were then decanted to sterile sample containers containing sodium thiosulfate to stop the oxidation process and preserve the sample. Samples were then placed in a refrigerator until all samples were finished. Samples were packaged in a standard cooler with ice packs and sent via overnite delivery to ProChem Labs in Lynchburg, Va. for analysis for total heterotrophic bacteria counts.

[7] = Treatment of sulfides in municipal wastewater with ferric chelants and hydrogen peroxide
Method: The pH was then raised to 7 using sodium hydroxide. Precipitation of iron oxides and/or hydroxides at this pH offered assurance of complete chelation of still soluble iron after 24 hours.
Total sulfides were tested for using Standard Methods 4500-S^2− D with a Hach Chemical Company (of Loveland, Colo.) DR 2000 Spectrophotometer and reagents from Hach specific for this particular test. To keep total sulfides within the range of the test, samples were diluted with distilled water prior to conducting the test as per Hach instructions.
Tests for total sulfide were conducted after 5, 15, and 30 minutes of contact time on each of the seven liter test jars.

OO [H2O2 Only, hydrogen peroxide]
2,4-D concentration ([1]; 250 mL, 200 microliters 50% hydrogen peroxide (with or without 200 microliters Fe-GLC), untreated 130 ppb): 230 ppb | effect on 2,4-D, in words [1]: had no affect | Benzene [2]: 15.1 ppb | Ethylbenzene [3]: 13.0 ppb | Toluene [4]: 55.7 ppb | Xylenes [5]: 67.0 ppb | MtBE [6]: 15.7 ppb | Fecal Coliform (Fecal Coliform): 53 cfu/100 mL | Fecal Coliform (Fecal Coliform; listed as hydrogen peroxide): Fifty three | disinfection effect, in words (heterotrophic bacteria): good disinfectant | sulfide reduction after 15 minutes ([7]; 2.5:1.0 peroxide to sulfide, 105.8 ppm hydrogen peroxide, 20 ppm chelant where added, peroxide alone averaged): 52% | sulfide treatment after 15 minutes ([7]; 37.8 ppm hydrogen peroxide, 12 ppm chelant where added): 42.9% | Percentage of Sulfide Treated, Dose 3 38.7 ppm H2O2 Only ([7]; after 30 minutes, 1.5:1.0 ratio of peroxide to sulfide): 55.5 and 59.0 and 46.5 and 56.3 and 57.0 and 54.7 | Percentage of Sulfide Treated, Dose 3 105.8 ppm H2O2 Only ([7]; after 30 minutes, 2.5:1.0 ratio of peroxide to sulfide): 69.0 and 69.5 and 67.8 and 66.4 and 44.4 and 69.3 and 70.2
